Data published in US20260226493A1, “HERBICIDE RESISTANT PLANTS” (SYNGENTA CROP PROTECTION AG, priority 2023, published 2026).

Key:
[1] = molecular target: T1, Arabidopsis thaliana BIO3-BIO1 (BioDA) mutants (Arabidopsis thaliana, UniProt B0F481); test: BIO3-BIO1 mutant enzyme activity in the presence of herbicide, percentage inhibition (fluorometric DAPA assay); assay type: biochemical
T1 construct: with the predicted N-terminal mitochondrial transit peptide removed; 6xHis-tag (N); thrombin cleavage site (N); made in house; host or cells: E. coli BL21 (DE3) bioA
T1 sequence (B0F481 23-833, change not shown): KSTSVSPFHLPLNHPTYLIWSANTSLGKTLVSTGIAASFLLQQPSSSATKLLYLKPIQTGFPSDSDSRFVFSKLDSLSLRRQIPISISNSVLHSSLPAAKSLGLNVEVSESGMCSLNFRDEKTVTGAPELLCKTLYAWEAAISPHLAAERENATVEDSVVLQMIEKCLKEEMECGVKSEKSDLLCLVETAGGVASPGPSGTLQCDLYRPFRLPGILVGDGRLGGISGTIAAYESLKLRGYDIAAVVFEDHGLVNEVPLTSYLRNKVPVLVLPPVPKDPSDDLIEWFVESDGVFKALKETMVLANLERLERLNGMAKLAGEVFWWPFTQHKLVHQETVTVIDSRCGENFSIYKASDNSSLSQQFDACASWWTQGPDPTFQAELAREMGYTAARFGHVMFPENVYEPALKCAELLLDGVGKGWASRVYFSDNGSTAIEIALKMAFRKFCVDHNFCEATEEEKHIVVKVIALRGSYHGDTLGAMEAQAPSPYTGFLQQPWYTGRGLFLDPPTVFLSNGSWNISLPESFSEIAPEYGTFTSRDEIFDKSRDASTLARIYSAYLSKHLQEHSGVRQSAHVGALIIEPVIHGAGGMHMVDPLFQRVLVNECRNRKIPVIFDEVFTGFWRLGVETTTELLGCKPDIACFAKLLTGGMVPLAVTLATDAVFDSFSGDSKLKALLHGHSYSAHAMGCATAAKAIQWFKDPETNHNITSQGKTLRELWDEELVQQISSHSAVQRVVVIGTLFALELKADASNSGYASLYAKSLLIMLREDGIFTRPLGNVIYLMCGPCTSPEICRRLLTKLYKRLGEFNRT
In short: (§1)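 Percentage inhibition compares activity at one of three herbicide concentrations against DMSO, from o-phthalaldehyde-derivatised DAPA fluorescence (ex 410, em 470 nm). Purified N-His BIO3-BIO1 variants (50 nM, E. coli-expressed) saw herbicide 10 min at 20 °C in pH 8.6 EPPS buffer, then 20 μM KAPA plus 100 μM spermidine for 75 min at 20 °C.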

[2] = test system: Arabidopsis thaliana BIO3-BIO1 (BioDA) mutants; test: as above; assay type: biochemical
In short: as §1

[3] = read-out: percentage inhibition

CCn1c(-c2ccc(Cl)c(Cl)c2)c(C(=O)O)c(=O)c2cc(F)ccc21 [Compound M, 2-(3,4-dichlorophenyl)-1-ethyl-6-fluoro-4-oxo-quinoline-3-carboxylic acid]
percentage inhibition ([1]; WT (SEQ ID NO 294), 0.1 μM herbicide): 23%
inhibition at 0.2 µM [1, 3]: 23%

CCOC(=O)c1nn(-c2ccc3c(c2)OC(F)(F)C(F)(F)O3)c2cccc(C(C)=O)c2c1=O [Compound A, ethyl 5-acetyl-4-oxo-1-(2,2,3,3-tetrafluoro-1,4-benzodioxin-6-yl)cinnoline-3-carboxylate]
percentage inhibition ([2]; variant Q517M, 1 μM): 38%
percentage inhibition ([2]; variant W392A, 1 μM): 53%

CCn1c(Cn2ccc(C(F)(F)F)n2)cc(=O)c(C(=O)O)c1-c1ccc(Cl)c(Cl)c1 [Compound L, 2-(3,4-dichlorophenyl)-1-ethyl-4-oxo-6-[[3-(trifluoromethyl)pyrazol-1-yl]methyl]pyridine-3-carboxylic acid]
percentage inhibition ([2]; variant Q517F, 0.01 μM): 0%
percentage inhibition ([2]; variant Q517F, 0.075 μM): 17%
percentage inhibition ([2]; variant Q517F, 0.5 μM): 54%
percentage inhibition ([2]; variant Q517H, 0.01 μM): 0%
percentage inhibition ([2]; variant T393V, 0.01 μM): 9%
percentage inhibition ([2]; variant T393V, 0.075 μM): 19%
percentage inhibition ([2]; variant T393V, 0.5 μM): 65%
percentage inhibition ([2]; variant T512C, 0.01 μM): 0%
percentage inhibition ([2]; variant T512C, 0.075 μM): 18%
percentage inhibition ([2]; variant T512C, 0.5 μM): 69%
percentage inhibition ([2]; variant T512D, 0.01 μM): 24%
percentage inhibition ([2]; variant T512D, 0.075 μM): 23%
percentage inhibition ([2]; variant T512D, 0.5 μM): 58%
percentage inhibition ([2]; variant T512G, 0.01 μM): 0%
percentage inhibition ([2]; variant T512G, 0.075 μM): 0%
percentage inhibition ([2]; variant T512G, 0.5 μM): 20%
percentage inhibition ([2]; variant T512I, 0.01 μM): 2%
percentage inhibition ([2]; variant T512I, 0.075 μM): 15%
percentage inhibition ([2]; variant T512I, 0.5 μM): 29%
percentage inhibition ([2]; variant T512N, 0.01 μM): 15%
percentage inhibition ([2]; variant T512N, 0.075 μM): 37%
percentage inhibition ([2]; variant T512N, 0.5 μM): 76%
percentage inhibition ([2]; variant T512Q, 0.01 μM): 3%
percentage inhibition ([2]; variant T512Q, 0.075 μM): 35%
percentage inhibition ([2]; variant T512Q, 0.5 μM): 74%
percentage inhibition ([2]; variant T512R, 0.01 μM): 27%
percentage inhibition ([2]; variant T512R, 0.075 μM): 61%
percentage inhibition ([2]; variant T512R, 0.5 μM): 91%
percentage inhibition ([2]; variant T512V, 0.01 μM): 33%
percentage inhibition ([2]; variant T512V, 0.075 μM): 57%
percentage inhibition ([2]; variant T512V, 0.5 μM): 83%
percentage inhibition ([2]; variant T512W, 0.01 μM): 18%
percentage inhibition ([2]; variant T512W, 0.075 μM): 0%
percentage inhibition ([2]; variant T512W, 0.5 μM): 31%
percentage inhibition ([2]; variant V354A, 0.01 μM): 6%
percentage inhibition ([2]; variant V354A, 0.075 μM): 0%
percentage inhibition ([2]; variant V354A, 0.5 μM): 47%
percentage inhibition ([2]; variant V354E, 0.01 μM): 4%
percentage inhibition ([2]; variant V354E, 0.075 μM): 19%
percentage inhibition ([2]; variant V354E, 0.5 μM): 35%
percentage inhibition ([2]; variant V354L, 0.01 μM): 0%
percentage inhibition ([2]; variant V354L, 0.075 μM): 16%
percentage inhibition ([2]; variant V354L, 0.5 μM): 63%
percentage inhibition ([2]; variant V354T, 0.01 μM): 0%
percentage inhibition ([2]; variant V354T, 0.075 μM): 7%
percentage inhibition ([2]; variant V354T, 0.5 μM): 89%
percentage inhibition ([2]; variant W391L, 0.01 μM): 24%
percentage inhibition ([2]; variant W391L, 0.075 μM): 10%
percentage inhibition ([2]; variant W391L, 0.5 μM): 16%
percentage inhibition ([2]; variant W391M, 0.01 μM): 0%
percentage inhibition ([2]; variant W391M, 0.075 μM): 16%
percentage inhibition ([2]; variant W391M, 0.5 μM): 30%
percentage inhibition ([2]; variant W392C, 0.01 μM): 2%
percentage inhibition ([2]; variant W392C, 0.075 μM): 12%
percentage inhibition ([2]; variant W392C, 0.5 μM): 13%
percentage inhibition ([2]; variant W392D, 0.01 μM): 19%
percentage inhibition ([2]; variant W392D, 0.075 μM): 59%
percentage inhibition ([2]; variant W392D, 0.5 μM): 85%
percentage inhibition ([2]; variant W392G, 0.01 μM): 0%
percentage inhibition ([2]; variant W392G, 0.075 μM): 2%
percentage inhibition ([2]; variant W392G, 0.5 μM): 0%
percentage inhibition ([2]; variant W392M, 0.01 μM): 0%
percentage inhibition ([2]; variant W392M, 0.075 μM): 10%
percentage inhibition ([2]; variant W392M, 0.5 μM): 8%
percentage inhibition ([2]; variant W392S, 0.01 μM): 0%
percentage inhibition ([2]; variant W392S, 0.075 μM): 3%
percentage inhibition ([2]; variant W392S, 0.5 μM): 0%
percentage inhibition ([2]; variant Y511C, 0.01 μM): 0%
percentage inhibition ([2]; variant Y511C, 0.075 μM): 3%
percentage inhibition ([2]; variant Y511C, 0.5 μM): 44%
percentage inhibition ([2]; variant Y511D, 0.01 μM): 20%
percentage inhibition ([2]; variant Y511D, 0.075 μM): 29%
percentage inhibition ([2]; variant Y511D, 0.5 μM): 51%
percentage inhibition ([2]; variant Y511E, 0.01 μM): 0%
percentage inhibition ([2]; variant Y511E, 0.075 μM): 0%
percentage inhibition ([2]; variant Y511E, 0.5 μM): 33%
percentage inhibition ([2]; variant Y511F, 0.01 μM): 48%
percentage inhibition ([2]; variant Y511F, 0.075 μM): 65%
percentage inhibition ([2]; variant Y511F, 0.5 μM): 86%
percentage inhibition ([2]; variant Y511I, 0.01 μM): 21%
percentage inhibition ([2]; variant Y511I, 0.075 μM): 27%
percentage inhibition ([2]; variant Y511I, 0.5 μM): 28%
percentage inhibition ([2]; variant Y511M, 0.01 μM): 0%
percentage inhibition ([2]; variant Y511M, 0.075 μM): 27%
percentage inhibition ([2]; variant Y511M, 0.5 μM): 76%
percentage inhibition ([2]; variant Y511P, 0.01 μM): 10%
percentage inhibition ([2]; variant Y511P, 0.075 μM): 26%
percentage inhibition ([2]; variant Y511P, 0.5 μM): 63%
percentage inhibition ([2]; variant Y511Q, 0.01 μM): 0%
percentage inhibition ([2]; variant Y511Q, 0.075 μM): 6%
percentage inhibition ([2]; variant Y511Q, 0.5 μM): 28%
percentage inhibition ([2]; variant Y511R, 0.01 μM): 15%
percentage inhibition ([2]; variant Y511R, 0.075 μM): 7%
percentage inhibition ([2]; variant Y511R, 0.5 μM): 34%
percentage inhibition ([2]; variant Y511V, 0.01 μM): 0%
percentage inhibition ([2]; variant Y511V, 0.075 μM): 5%
percentage inhibition ([2]; variant Y511V, 0.5 μM): 49%
percentage inhibition ([2]; variant Y511W, 0.01 μM): 11%
percentage inhibition ([2]; variant Y511W, 0.075 μM): 22%
percentage inhibition ([2]; variant Y511W, 0.5 μM): 50%
inhibition at 0.01 µM [1, 3]: 6%
inhibition at 0.075 µM [1, 3]: 44%
inhibition at 0.5 µM [1, 3]: 83%
